Results as given in BindingDB's records for doi:10.1021/jm960799i (Dupont Pharmaceuticals, 1997).
Where a name gives a salt, the structure may show the parent alone.

Molecular target: Integrin alpha-IIb/beta-3 (Homo sapiens, UniProt P08514+P05106)
Test: In vitro inhibition of ADP-induced platelet aggregation in human platelet rich plasma (hPRP)

Integrin alpha-IIb/beta-3, sequence (P05106 27-788 limits assumed): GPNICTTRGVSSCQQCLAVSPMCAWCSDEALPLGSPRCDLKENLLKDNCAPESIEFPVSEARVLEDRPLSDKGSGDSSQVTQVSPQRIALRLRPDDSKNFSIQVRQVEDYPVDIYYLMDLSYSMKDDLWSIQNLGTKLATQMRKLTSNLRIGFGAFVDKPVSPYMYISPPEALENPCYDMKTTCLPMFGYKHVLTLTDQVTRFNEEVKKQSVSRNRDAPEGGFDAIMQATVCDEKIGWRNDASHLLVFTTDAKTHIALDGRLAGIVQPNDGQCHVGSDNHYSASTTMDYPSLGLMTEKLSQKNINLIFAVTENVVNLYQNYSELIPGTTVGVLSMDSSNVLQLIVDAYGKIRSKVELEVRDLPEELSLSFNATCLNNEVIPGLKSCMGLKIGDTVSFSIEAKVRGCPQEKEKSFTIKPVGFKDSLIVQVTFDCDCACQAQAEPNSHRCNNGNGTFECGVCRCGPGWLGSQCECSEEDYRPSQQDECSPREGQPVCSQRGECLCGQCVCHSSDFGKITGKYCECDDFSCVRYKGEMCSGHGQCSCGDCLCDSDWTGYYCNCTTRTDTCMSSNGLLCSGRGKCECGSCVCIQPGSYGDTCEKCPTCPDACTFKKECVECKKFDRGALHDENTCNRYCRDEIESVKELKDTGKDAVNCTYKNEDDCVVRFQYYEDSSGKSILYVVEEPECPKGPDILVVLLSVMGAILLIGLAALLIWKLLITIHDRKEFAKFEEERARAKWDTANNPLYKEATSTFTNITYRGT
Integrin alpha-IIb/beta-3, sequence (P08514 32-887 limits assumed): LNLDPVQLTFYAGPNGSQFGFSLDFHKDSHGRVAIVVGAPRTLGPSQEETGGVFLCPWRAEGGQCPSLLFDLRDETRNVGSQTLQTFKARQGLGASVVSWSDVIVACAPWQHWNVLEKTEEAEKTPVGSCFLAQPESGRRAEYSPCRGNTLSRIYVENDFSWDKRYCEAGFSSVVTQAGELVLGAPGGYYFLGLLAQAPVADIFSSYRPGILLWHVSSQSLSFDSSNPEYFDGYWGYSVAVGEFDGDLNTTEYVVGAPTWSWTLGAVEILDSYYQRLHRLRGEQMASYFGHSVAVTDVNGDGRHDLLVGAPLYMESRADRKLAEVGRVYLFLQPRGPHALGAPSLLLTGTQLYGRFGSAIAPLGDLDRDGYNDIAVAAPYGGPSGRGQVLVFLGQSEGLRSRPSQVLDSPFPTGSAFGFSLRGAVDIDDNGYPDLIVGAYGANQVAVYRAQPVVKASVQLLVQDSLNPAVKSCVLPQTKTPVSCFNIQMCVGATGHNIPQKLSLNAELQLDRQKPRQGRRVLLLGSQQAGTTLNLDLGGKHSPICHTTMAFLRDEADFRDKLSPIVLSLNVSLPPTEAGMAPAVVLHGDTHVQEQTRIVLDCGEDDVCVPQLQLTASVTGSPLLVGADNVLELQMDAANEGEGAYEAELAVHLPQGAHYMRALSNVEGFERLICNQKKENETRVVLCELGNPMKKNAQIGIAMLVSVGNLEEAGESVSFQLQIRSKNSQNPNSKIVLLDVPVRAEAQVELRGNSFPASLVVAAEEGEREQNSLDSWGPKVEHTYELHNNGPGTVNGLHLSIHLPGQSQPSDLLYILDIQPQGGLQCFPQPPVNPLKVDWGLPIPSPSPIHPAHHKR
Integrin alpha-IIb/beta-3, sequence (P08514 891-1039 limits assumed): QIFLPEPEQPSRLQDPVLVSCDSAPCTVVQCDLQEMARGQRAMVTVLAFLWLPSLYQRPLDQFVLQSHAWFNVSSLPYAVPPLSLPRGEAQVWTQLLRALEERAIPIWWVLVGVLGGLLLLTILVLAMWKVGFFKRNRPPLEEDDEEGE

**Q.** How did the IC50 turn out when `N=C(N)c1ccc(C2=NOC(CC(=O)N[C@@H](CC(=O)O)C(=O)NCC34CC5CC(CC(C5)C3)C4)C2)cc1` (stereo partly drawn) [(S)-N-Adamantan-1-ylmethyl-3-{2-[3-(4-carbamimidoyl-phenyl)-4,5-dihydro-isoxazol-5-yl]-acetylamino}-succinamic acid; TFA] was run?
**A.** 95 nM

**Q.** How did the IC50 turn out when `N=C(N)c1ccc(C2=NOC(CC(=O)N[C@@H](CC(=O)O)C(=O)NC3C4CC5CC(C4)CC3C5)C2)cc1` (stereo partly drawn) [(S)-N-Adamantan-2-yl-3-{2-[3-(4-carbamimidoyl-phenyl)-4,5-dihydro-isoxazol-5-yl]-acetylamino}-succinamic acid; TFA] was run?
**A.** 140 nM

**Q.** With `CCCCN(Cc1ccccc1)C(=O)[C@H](CC(=O)O)NC(=O)CC1CC(c2ccc(C(=N)N)cc2)=NO1` (stereo partly drawn) [(S)-N-Benzyl-N-butyl-3-{2-[3-(4-carbamimidoyl-phenyl)-4,5-dihydro-isoxazol-5-yl]-acetylamino}-succinamic acid; TFA] as the compound, how does the IC50 read?
**A.** 180 nM
